According to patent US12336995B2, “Combination therapies” (Mirati Therapeutics, Inc., priority 2018, dated 2025):
Read-outs that look alike come from different tables or passages of the source.

Experiments:
[1] = test system: CR6258 Tumor; assay: In vivo PDX model, Compound 478 and Cetuximab (Table 5a); set-up: species or system nude/nude mice; details: for Average Tumor Volumes: CR6258, Cetuximab 0.25 mg/kg i.p. every third day, single or combined
Protocol: (§1) Immunocompromised nude/nude mice were inoculated in the right hind flank with cells or patient derived tumor samples harboring a KRas G12C mutation. […] The first group was administered vehicle only. […] The fourth group was administered the single agent dose of the KRas G12C inhibitor in combination with the single agent dose of the pan ErbB family inhibitor. […] Tumor volumes were measured using a caliper every two-three days and tumor volumes were calculated by the formula: 0.5×(Length×Width)^2.
(§2) In a related experiment, on Day 1, two sets of 20 nude/nude mice each were inoculated in the right hind limb with 5×10^6 CR6256 cells or CR2528 cells (PDX models). […] Tumor volumes were measured at pre-specified days set forth below.

[2] = test system: CR2528 cells (PDX models); assay: In vivo PDX model, Compound 478 and Cetuximab (Table 5b); set-up: species or system nude/nude mice; details: for Average Tumor Volumes: CR2528, Cetuximab 0.25 mg/kg i.p. every third day, single or combined
Protocol: as §1, §2

[3] = test system: KYSE-410 cells; details: KYSE-410-implanted mice; Day 61 (Treatment Day 50); single agent 100 mg/kg p.o. daily; Table 6a
Protocol: as §1
(§3) Tumor volumes were measured at pre-specified days set forth below.

[4] = test system: H2122 cells; details: H2122-implanted mice; Day 46 (Treatment Day 35); single agent 100 mg/kg p.o. daily; Table 6b
Protocol: as §1, §3

[5] = test system: LU6405 cells (PDX model); assay: In vivo PDX model, Compound 478 and Afatinib (Table 4c); details: for Average Tumor Volumes: LU6405, Afatinib 12.5 mg/kg, single or combined
Protocol: as §1, §3

[6] = test system: H2122 cells; assay: In vivo tumor model, Compound 478 and Afatinib (Table 4a); details: for Average Tumor Volumes: H2122, Afatinib 12.5 mg/kg, single or combined
Protocol: as §1, §3

[7] = test system: KYSE-410 cells; assay: In vivo tumor model, Compound 478 and Afatinib (Table 4b); details: for Average Tumor Volumes: KYSE-410, Afatinib 12.5 mg/kg, single or combined
Protocol: as §1, §3

[8] = Day 11 post implant (treatment start), Compound 478 100 mg/kg p.o. daily
[9] = Day 11 post implant (treatment start), p.o. daily: Compound 478 100 mg/kg
[10] = Day 14 post implant, p.o. daily from Day 11: Compound 478 100 mg/kg
[11] = Day 18 post implant, p.o. daily from Day 11: Compound 478 100 mg/kg
[12] = Day 21 post implant, p.o. daily from Day 11: Compound 478 100 mg/kg
[13] = Day 25 post implant, p.o. daily from Day 11: Compound 478 100 mg/kg
[14] = Day 28 post implant, p.o. daily from Day 11: Compound 478 100 mg/kg
[15] = Day 32 post implant, p.o. daily from Day 11: Compound 478 100 mg/kg
[16] = Day 34 post implant, p.o. daily from Day 11: Compound 478 100 mg/kg

`C=C(F)C(=O)N1CCN(c2nc(OC[C@@H]3CCCN3C)nc3c2CCN(c2cccc4cccc(Cl)c24)C3)C[C@@H]1CC#N` [Compound 478] was tested, and the tumor regression ([1]; CR6258-implanted mice, Day 37 (Treatment Day 27), Compound 478 100 mg/kg p.o. daily alone or with cetuximab 0.25 mg/kg i.p. every three days) was 71%, the “Average Tumor Volumes” value [1, 8] was 190.54 mm^3 and the “Average Tumor Volumes” value ([1]; Day 18 post implant, from Day 11: Compound 478 100 mg/kg p.o. daily) was 256.91 mm^3. The “Average Tumor Volumes” value ([1]; Day 25 post implant, from Day 11: Compound 478 100 mg/kg p.o. daily) was 201.00 mm^3, the “Average Tumor Volumes” value ([1]; Day 28 post implant, from Day 11: Compound 478 100 mg/kg p.o. daily) was 128.77 mm^3 and the “Average Tumor Volumes” value ([1]; Day 32 post implant, from Day 11: Compound 478 100 mg/kg p.o. daily) was 77.44 mm^3. For the same compound, the “Average Tumor Volumes” value ([1]; Day 35 post implant, from Day 11: Compound 478 100 mg/kg p.o. daily) was 56.15 mm^3, the “Average Tumor Volumes” value ([1]; Day 39 post implant, from Day 11: Compound 478 100 mg/kg p.o. daily) was 44.24 mm^3 and the “Average Tumor Volumes” value ([1]; Day 42 post implant, from Day 11: Compound 478 100 mg/kg p.o. daily) was 41.80 mm^3. For the same compound, the “Average Tumor Volumes” value ([1]; Day 46 post implant, from Day 11: Compound 478 100 mg/kg p.o. daily) was 29.92 mm^3, the “Average Tumor Volumes” value ([1]; Day 49 post implant, from Day 11: Compound 478 100 mg/kg p.o. daily) was 19.79 mm^3 and the single-agent anti-tumor activity ([2]; CR2528-implanted mice, Day 34 (Treatment Day 24), 100 mg/kg p.o. daily) was “no single-agent anti-tumor activity”. The “Average Tumor Volumes” value [2, 8] was 265.11 mm^3, the “Average Tumor Volumes” value ([2]; Day 14 post implant, from Day 11: Compound 478 100 mg/kg p.o. daily) was 350.48 mm^3 and the “Average Tumor Volumes” value ([2]; Day 17 post implant, from Day 11: Compound 478 100 mg/kg p.o. daily) was 434.64 mm^3. The “Average Tumor Volumes” value ([2]; Day 20 post implant, from Day 11: Compound 478 100 mg/kg p.o. daily) was 656.73 mm^3, the “Average Tumor Volumes” value ([2]; Day 24 post implant, from Day 11: Compound 478 100 mg/kg p.o. daily) was 950.91 mm^3 and the “Average Tumor Volumes” value ([2]; Day 27 post implant, from Day 11: Compound 478 100 mg/kg p.o. daily) was 1252.80 mm^3. The “Average Tumor Volumes” value ([2]; Day 31 post implant, from Day 11: Compound 478 100 mg/kg p.o. daily) was 1713.13 mm^3, the “Average Tumor Volumes” value ([2]; Day 34 post implant, from Day 11: Compound 478 100 mg/kg p.o. daily) was 2757.63 mm^3 and the tumor growth inhibition [3] was 71%. The tumor regression [4] was 3%, the “Average Tumor Volumes” value [5, 9] was 256.06 mm^3 and the “Average Tumor Volumes” value [5, 10] was 308.98 mm^3. The “Average Tumor Volumes” value [5, 11] was 324.46 mm^3, the “Average Tumor Volumes” value [5, 12] was 329.09 mm^3 and the “Average Tumor Volumes” value [5, 13] was 310.21 mm^3. For the same compound, the “Average Tumor Volumes” value [5, 14] was 290.88 mm^3, the “Average Tumor Volumes” value [5, 15] was 257.34 mm^3 and the “Average Tumor Volumes” value [5, 16] was 249.19 mm^3. For the same compound, the tumor growth inhibition ([5]; LU6405-implanted mice, Day 34 (Treatment Day 24), single agent 100 mg/kg p.o. daily) was 96%, the “Average Tumor Volumes” value [6, 9] was 325.05 mm^3 and the “Average Tumor Volumes” value ([6]; Day 13 post implant, p.o. daily from Day 11: Compound 478 100 mg/kg) was 339.80 mm^3. For the same compound, the “Average Tumor Volumes” value ([6]; Day 15 post implant, p.o. daily from Day 11: Compound 478 100 mg/kg) was 337.58 mm^3, the “Average Tumor Volumes” value [6, 11] was 381.78 mm^3 and the “Average Tumor Volumes” value ([6]; Day 20 post implant, p.o. daily from Day 11: Compound 478 100 mg/kg) was 462.40 mm^3. For the same compound, the “Average Tumor Volumes” value ([6]; Day 22 post implant, p.o. daily from Day 11: Compound 478 100 mg/kg) was 479.48 mm^3, the “Average Tumor Volumes” value [6, 13] was 492.76 mm^3 and the “Average Tumor Volumes” value ([6]; Day 27 post implant, p.o. daily from Day 11: Compound 478 100 mg/kg) was 541.06 mm^3. The “Average Tumor Volumes” value ([6]; Day 29 post implant, p.o. daily from Day 11: Compound 478 100 mg/kg) was 537.14 mm^3, the “Average Tumor Volumes” value [6, 15] was 547.06 mm^3 and the “Average Tumor Volumes” value [6, 16] was 546.96 mm^3. The tumor growth inhibition ([6]; H2122 tumor bearing mice, Day 22 (Treatment Day 10), single agent, Compound 478 100 mg/kg, afatinib 12.5 mg/kg p.o. daily) was 85%, the “Average Tumor Volumes” value [7, 9] was 307.30 mm^3 and the “Average Tumor Volumes” value [7, 10] was 274.64 mm^3. For the same compound, the “Average Tumor Volumes” value ([7]; Day 16 post implant, p.o. daily from Day 11: Compound 478 100 mg/kg) was 311.34 mm^3, the “Average Tumor Volumes” value [7, 11] was 297.62 mm^3 and the “Average Tumor Volumes” value [7, 12] was 338.18 mm^3. For the same compound, the “Average Tumor Volumes” value ([7]; Day 23 post implant, p.o. daily from Day 11: Compound 478 100 mg/kg) was 320.42 mm^3, the “Average Tumor Volumes” value [7, 13] was 358.68 mm^3 and the “Average Tumor Volumes” value [7, 14] was 459.20 mm^3. For the same compound, the “Average Tumor Volumes” value ([7]; Day 30 post implant, p.o. daily from Day 11: Compound 478 100 mg/kg) was 441.60 mm^3, the “Average Tumor Volumes” value [7, 15] was 480.62 mm^3 and the “Average Tumor Volumes” value ([7]; Day 37 post implant, p.o. daily from Day 11: Compound 478 100 mg/kg) was 525.86 mm^3. It also gave a tumor growth inhibition ([7]; KYSE-410 tumor bearing mice, Day 37 (Treatment Day 27), single agent 100 mg/kg p.o. daily) of 64%.
